Where two headings read alike, the source gives them in different places.
Assays:
[1] = tested on: parkinsonism tremor; conditions: in vivo; cited from earlier work
[2] = tested on: ethanol withdrawal head-twitches; test: Suppression of ethanol withdrawal head-twitches in mice habituated to ethanol; type: in vivo, mice (male T/O); conditions: for ED50: Mus musculus; for suppression of head-twitches: mice undergoing ethanol withdrawal
Method: (§1) Male T/O mice were habituated to ethanol by oral administration of aqueous ethanol solutions over three days. Ethanol was administered as a 40% w/v solution, the animals receiving 4 g/kg on the first day, 5 g/kg on the second day and 6 g/kg on the third day. Twenty-four hours after the third dose, approximately 12 hours after blood ethanol had fallen to zero, mice were observed over a period of 4 minutes in groups of five and the number of head-twitches were recorded for each animal. All animals received two doses of levodopa or vehicle, one 6 hours after the last dose of ethanol and the other one hour before observation of the animals. The amount of discoordination produced by each treatment was also determined by measuring the animals' ability to remain for 1 minute on a drum, 30 cm diameter, rotating at a speed of 1 rpm. Using a quantal method the median effective dose (ED50) to suppress head-twitches was determined. […] The ratio FD50 to ED50 gives the therapeutic ratio.
All drugs given one hour before observation except noradrenaline (35
minutes). Doses are expressed as mg/kg orally (P.O.), subcutaneously
(S.C.) or intracerebrally (I.C.V.). *Animals in levodopa experiment
received two doses of levodopa or vehicle, the first being given six hour
after the last dose of ethanol, the second one hour before observation.
The values indicated are computed from the doses of levodopa given on eac
(§2) occasion. The dose of each drug to discoordinate 50% of the animals (FD
(§3) 50) was compared with the dose that reduced to 50% the proportion of mice
(§4) showing head-twitches (ED 50).

[3] = Discoordination: ability to remain for 1 minute on a rotating drum; conditions: mouse, in vivo; for TD50 at 1 h: po
Method: as §1, §2, §3

[4] = Therapeutic ratio FD50/ED50 (discoordination against head-twitches); conditions: mouse, in vivo
Method: as §1, §2, §3, §4

[5] = tested on: brain catecholamines; conditions: increasing doses of levodopa; cited from earlier work
[6] = tested on: depression; conditions: in vivo; cited from earlier work
[7] = tested on: discoordination; test: Discoordination: ability to remain for 1 minute on a rotating drum; conditions: mouse, in vivo
Method: as §1, §2, §3

[8] = tested on: sleep; conditions: cited from earlier work
[9] = tested on: delirium tremors or seizures; conditions: severe cases of physical dependence; cited from earlier work
[10] = tested on: withdrawal symptoms; test: Production of withdrawal symptoms; conditions: in vivo

NC(CO)C(=O)NNCc1cc(O)c(O)c(O)c1 (racemic) [N'-(D,L-seryl)-N"-(3,4,5-trihydroxybenzyl)-hydrazine]
control of parkinsonism tremor [1]: useful in the control of parkinsonism tremor

CC(N)Cc1ccccc1.O=S(=O)(O)O (centres unmarked) [Amphetamine sulphate]
ED50 ([2]; sc, 1 h, read-out: ED 50 value to reduce head-twitches (with 95% fiducial limits)): 7.18 mg/kg | suppression of head-twitches ([2]; subcutaneously): complete suppression of head-twitches

CCO [Ethanol, ethanol]
ED50 ([2]; po, 1 h, P.O., one hour before observation, read-out: ED 50 value to reduce head-twitches (with 95% fiducial limits)): 3990 mg/kg | TD50 at 1 h [3]: 2500 mg/kg | selectivity ratio ([4]; po): 0.6

N[C@@H](Cc1ccc(O)c(O)c1)C(=O)O [L-DOPA, L-β-3,4-dihydroxyphenylalanine]
shift of brain catecholamine levels [5]: increasing shift of brain levels from dopamine to noradrenaline | ED50 ([2]; po, P.O.*, two doses: 6 h after last ethanol and 1 h before observation, per-occasion dose, limits 63-1213, read-out: ED 50 value to reduce head-twitches (with 95% fiducial limits)): 232 mg/kg | ED50 ([2]; po, levodopa, text of summary, read-out: median effective dose (ED50) required to prevent or suppress withdrawal symptoms): 231 mg/kg | therapeutic use in the treatment of depression [6]: of questionable value | TD50 at 1 h [3]: > 800 mg/kg | animals discoordinated [7]: none of the animals were discoordinated | effect on sleeping time with repeated doses ([8]; increasing numbers of doses): this effect became smaller with increasing numbers of doses | increase in sleeping time ([8]; single dose 400 mg/kg): three-fold increase in sleeping time | selectivity ratio ([4]; po): 3.5

NC[C@H](O)c1ccc(O)c(O)c1 [Noradrenaline]
ED50 ([2]; central, 35 min, I.C.V., 35 minutes before observation, read-out: ED 50 value to reduce head-twitches (with 95% fiducial limits)): 0.003 mg/kg | suppression of head-twitches ([2]; intracerebral injection): complete suppression of head-twitches | TD50 at 35 min ([3]; icv or intrathecal): > 0.01 mg/kg | selectivity ratio [4]: > 3.3

CCCC(C)C1(CC)C(=O)NC(=O)NC1=O (centres unmarked) [Pentobarbitone sodium]
ED50 ([2]; po, 1 h, read-out: ED 50 value to reduce head-twitches (with 95% fiducial limits)): 231 mg/kg | TD50 at 1 h [3]: 91 mg/kg | selectivity ratio ([4]; po): 0.4

CN(C)CCCN1c2ccccc2Sc2ccc(Cl)cc21 [chlorpromazine]
prevention of delirium tremors or seizures [9]: ineffective to prevent delirium tremors or seizures

CN(C)CCCN1c2ccccc2Sc2ccccc21 [promazine]
prevention of delirium tremors or seizures [9]: ineffective to prevent delirium tremors or seizures

CC(N)(Cc1ccc(O)cc1)C(=O)O (stereo not drawn) [α-methyl p-tyrosine]
withdrawal symptoms produced [10]: produces withdrawal symptoms that can be reduced by anti-serotonin agents

CC(Cc1ccc(O)c(O)c1)(NN)C(=O)O (stereo not drawn) [α-methyl-dopa hydrazine]
control of parkinsonism tremor [1]: useful in the control of parkinsonism tremor
